{"source": "patent US20230301972A1", "about": "“ANTI-FIBROTIC COMPOSITION AND RELATED METHODS” (Fred Hutchinson Cancer Center, priority 2020, published 2023)", "format_in_all_cases": "cell-based, human", "key": {"[1]": {"test_system": "IPF-LL29 and IPF-LL97A cells", "assay": "qPCR of TGF-β-induced gene expression in IPF-LL29 and IPF-LL97A cells", "conditions": "nintedanib at a same equivalent dose, pirfenidone at a much higher dose; FIGS. 2A, 2B, 3A, 3B", "method": "IPF-LL29, IPF-LL97A, and human lung fibroblast LL47 cell lines were purchased from ATCC. Mouse lung fibroblasts were isolated from the lungs of male C57BL/6J mice. Cells were grown at 37° C. under 5% CO2, 95% ambient atmosphere and maintained in Dulbecco's […] (DMEM) supplemented with 10% FBS (Sigma) and 1% Penn Strep.\nFIGS. 2A and 2B. IPF-29 (FIG. 2A) or IPF-97A (FIG. 2B) cells were incubated with TGF-β alone at 5 ng/ml or TGF-β with indicated drugs for 48 hours and 5 days. Total cellular RNA was isolated using a RNeasy Mini Kit (QIAGEN). 1 μg of total RNA was reverse transcribed into first-strand cDNA using an RT2 First Strand Kit (QIAGEN). The resultant cDNA was subjected to qPCR using indicated human primers to measure the changes in mRNA expression of indicated human genes."}, "LX2 cells [2]": {"test_system": "LX2 cells", "assay": "qPCR of TGF-β-induced gene expression in LX2 cells", "conditions": "galunisertib", "method": "(§1) LX2 cells were obtained from Sigma Aldrich (Cat #SCC064). LX2 cells were grown at 37° C. under 5% CO2, 95% ambient atmosphere and maintained in Dulbecco's […] (DMEM) supplemented with 10% FBS (Sigma) and 1% Penn Strep.\nFIGS. 10B and 10C: LX2 cells were incubated with TGF-β alone at 6.5 ng/ml or TGF-β with indicated drugs for 48 hours. Total cellular RNA was isolated using a RNeasy Mini Kit (QIAGEN). 1 μg of total RNA was reverse transcribed into first-strand cDNA using an RT2 First Strand Kit (QIAGEN). The resultant cDNA was subjected to qPCR using indicated human primers to measure the changes in mRNA expression of indicated human genes."}, "LX2 cells [3]": {"test_system": "LX2 cells", "assay": "Live cell wound healing assay in LX2 cells", "conditions": "1 μM; TGFb 6.5 ng/ml; wound closure density at 50 hour", "method": "as §1\nFIG. 10A: LX2 cells were plated on 96-well plates (Essen Image Lock, Essen Instruments). […] Wound closure was monitored with Incucyte Live-Cell Imaging System and software (Essen Instruments) every 2-4 hours for 72 hours. The mean relative wound density of at least three biological replicates was calculated. The wound density correlates with the cell motility. Plotted is the wound closure density at 50 hour."}}, "data": [{"smiles": "Cc1ccc(=O)n(-c2ccccc2)c1", "note": "[pirfenidone, reference compound]", "values": [{"measurement": "TGF-β induced expression of myofibroblast activation marker genes or proliferation stimuli", "setting": "[1]", "value": "did not effectively block"}]}, {"smiles": "Cc1cccc(-c2nn3c(c2-c2ccnc4ccc(C(N)=O)cc24)CCC3)n1", "note": "[galunisertib, reference compound]", "values": [{"measurement": "effect on TGF-β-induced expression of COL1A1 and αSMA", "setting": "LX2 cells [2]", "value": "modest effect"}, {"measurement": "TGF-β-induced motility of LX2 cells", "setting": "LX2 cells [3]", "value": "did not affect LX2 cell motility"}]}, {"smiles": "COC(=O)c1ccc2c(c1)NC(=O)/C2=C(\\Nc1ccc(N(C)C(=O)CN2CCN(C)CC2)cc1)c1ccccc1", "note": "[nintedanib, reference compound]", "values": [{"measurement": "TGF-β induced expression of myofibroblast activation marker genes or proliferation stimuli", "setting": "[1]", "value": "did not effectively block"}]}]}
